Like-named read-outs stand apart in the source and are kept apart here.
Assays:
14-3-3σ = 14-3-3σ expression in plasma and hind paw skin of Taxol dosed mice (Somascan); assay type: in vivo
Description: The Taxol model was used in order to investigate the MoA of Formula 1.
Animals showing chemotherapy-induced pain following repeated doses of taxol were treated with either vehicle gabapentin or Formula 1. Plasma was collected following the first dose of the test items and after 7 days of daily treatment. Skin from hind paws were also collected following 7 days of daily treatment. The tissues were processed and the expression levels on 1310 proteins were assessed (Somascan provided by SomaLogic, Inc., Boulder, Colo.).
Three statistical methods were used to identify protein expression that discriminated between Formula 1, gabapentin and vehicle on day 8, following a single dose, and on study day 14 following multiple dosing.
A comparison between day 8 and day 14 within each group was also performed. All methods were conducted on scaled data. First, a Student's t-test was performed in order to compare proteins between groups. Second, the LASSO (least absolute shrinkage and selection operator) method was applied. This is a regression technique that simultaneously performs variable selection and model coefficient modification. These models used group as the outcome and all 1310 proteins as the starting predictors. LASSO was then tuned to shrink unimportant coefficients to zero, leaving approximately the ten most important predictors of (or discriminators between) the groups. […]

[1] = assay type: in vitro ADME; conditions: rat plasma
Description: (§1) Formula 1 was stable in both mouse and human plasma, with t90 values greater than 4 h, whereas it was unstable in rat plasma, with a t90 of less than 1 h (t90 should be greater than 4 h in order to be considered stable). Most of the efficacy and safety pharmacology was therefore run in mice.

human plasma = assay type: in vitro ADME
Description: as §1

mouse plasma = assay type: in vitro ADME
Description: as §1

in vitro = in vitro ADME; conditions: 1 μM; for microsomal CLint: read-out: intrinsic clearance (CLint)
Description: (§2) Metabolic stability studies in mouse, rat and human liver microsomes were performed at a compound concentration of 1 μM.

[2] = assay type: in vitro ADME, mouse, rat, human
Description: as §2
A total of five metabolites were detected in all three species. […] Due to the similarity in the plasma stability of the compound in the mouse and the human plasma, and toxicology studies would preferably be performed in the mouse.

[3] = assay type: in vivo, rats; conditions: for Findings: PO, Rat
Description: The tolerability of Formula 1 was evaluated in mice and rats. […] The compound was also tolerated following a single dose of 100 mg/kg in the mouse.

[4] = tested on: Taxol-induced neuropathic pain; assay: Taxol-induced neuropathic pain in the rat, per oral; assay type: in vivo; conditions: Taxol rats
Description: Study outline in brief: Taxol was administered daily for a period of 17 days (day 0 to day 16). On day 16, the withdrawal force was evaluated using the von Fey test. The animals experienced a reduction of more than 60% in the withdrawal force following repeated Taxol dosing. After a single treatment with Formula 1 at a dose of 50 mg/kg, a full reversal was recorded, i.e. the withdrawal force was similar to the values recorded prior to Taxol dosing commencement. The duration of the analgesic activity was at least 6 h.

[5] = tested on: Taxol-induced neuropathic pain; assay: Taxol-induced neuropathic pain in mice, oral route; assay type: in vivo; conditions: oral 50 mg/kg, study day 14, repeated daily dosing day 8 to day 14

In the case of `CC(C)(C)C(=O)O[C@@H]1[C@@H]2[C@H]3C[C@H](C[C@@H]1N3Cc1ccccn1)CN2C(=O)CC(F)(F)F` (relative stereo) [Formula 1, (2S*,3S*,3aS*,6R*,7aR*)-1-(pyridin-2-ylmethyl)-4-(3,3,3-trifluoropropanoyl)octahydro-1H-2,6-methanopyrrolo[3,2-b]pyridin-3-yl pivalate], the “14-3-3σ expression in the skin” value (14-3-3σ; hind plantar skin, study day 14, repeated dosing, vs. vehicle) is reported as “significantly reduced”, the “relative decrease in stratifin (14-3-3σ)” value (14-3-3σ; plasma, day 8 to day 14, daily treatment, Taxol dosed mice, vs. naïve animals) is reported as ~50% and the t90 [1] is reported as “less than 1 h”. The t90 (human plasma) was “greater than 4 h”, the t90 (mouse plasma) was “greater than 4 h” and the half-life (in vitro; human liver microsomes) was 8 min. For the same compound, the microsomal CLint (in vitro; human liver microsomes) was 174 µL/min/mg, the half-life (in vitro; mouse liver microsomes) was < 4 min and the microsomal CLint (in vitro; mouse liver microsomes) was > 346 µL/min/mg. The half-life (in vitro; rat liver microsomes) was < 4 min, the microsomal CLint (in vitro; rat liver microsomes) was > 346 µL/min/mg and the unique human metabolites [2] was “No unique human metabolites were detected”. The total metabolites detected ([2]; in all three species) was “five”, the major metabolic pathways ([2]; mouse, rat and human liver microsomes) was “N-dealkylation and oxidation” and the Findings ([3]; 50 mg/kg, 5 days) was “NPF”. The Findings ([3]; 100 mg/kg, 1 day) was “NPF”, the adverse effects ([3]; rats, oral, once daily 50 mg/kg for 5 days) was “did not show any adverse effects” and the “body weight loss following Taxol dosing” value [4] was “the rate of weight loss was reduced”. The “duration of the analgesic activity” value ([4]; oral 50 mg/kg) was “at least 6 h”, the “withdrawal force vs. vehicle 24 h post-dosing” value ([4]; oral 50 mg/kg) was “no significant difference” and the “withdrawal force (von Frey)” value ([4]; single oral treatment 50 mg/kg) was “full reversal”. The withdrawal force [5] was “This activity was maintained”.
